Target: T1, Human M4 (Homo sapiens, UniProt P08173)
T1 construct: expressed in transfected cells; host or cells: CHO-K1 (ATCC), stably co-expressing chimeric G protein Gqi5
T1 sequence (P08173 1-479): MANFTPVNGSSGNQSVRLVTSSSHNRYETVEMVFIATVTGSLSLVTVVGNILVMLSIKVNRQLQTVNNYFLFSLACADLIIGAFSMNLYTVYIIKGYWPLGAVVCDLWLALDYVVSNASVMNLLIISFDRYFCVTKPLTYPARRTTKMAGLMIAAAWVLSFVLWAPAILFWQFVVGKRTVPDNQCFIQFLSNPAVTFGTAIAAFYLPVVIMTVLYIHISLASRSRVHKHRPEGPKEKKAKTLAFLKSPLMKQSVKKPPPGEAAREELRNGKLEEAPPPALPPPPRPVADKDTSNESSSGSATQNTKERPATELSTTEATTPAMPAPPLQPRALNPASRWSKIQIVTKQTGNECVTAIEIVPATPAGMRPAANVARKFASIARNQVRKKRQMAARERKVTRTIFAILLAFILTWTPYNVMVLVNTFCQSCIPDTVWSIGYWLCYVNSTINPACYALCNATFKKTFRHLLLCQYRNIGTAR
Assay: mAChR M4 cell-based functional assay (calcium flux, antagonist mode)
Conditions: for remaining activity at 30 µM: % ACh maximum at 30 μM, read-out: Emin; for IC50: M4/Gqi5/CHO-K1 cells, concentration-dependent decrease of the EC80 acetylcholine response
Experimental: Human or rat M4 cDNA, along with the chimeric G protein Gqi5, were transfected into Chinese hamster ovary (CHO-K1) cells purchased from the American Type Culture Collection using Lipofectamine2000. M4/Gqi5/CHO cells were grown in Ham's F-12 medium containing 10% heat-inactivated fetal bovine serum (FBS), 20 mM HEPES, 500 μg/mL G418 sulfate, and 200 μg/mL Hygromycin B.
For high throughput measurement of agonist-evoked increases in intracellular calcium, CHO-K1 cells stably expressing muscarinic receptors were plated in growth medium lacking G418 and hygromycin at 15,000 cells/20 μL/well in Greiner 384-well black-walled, tissue culture (TC)-treated, clear-bottom plates (VWR). Cells were incubated overnight at 37° C. and 5% CO2. The next day, cells were washed using an ELX 405 (BioTek) with assay buffer; the final volume was then aspirated to 20 μL, Next, 20 μL of a 2.3 μM stock of Fluo-4/acetoxymethyl ester (Invitrogen, Carlsbad, Calif.), prepared as a 2.3 μM stock in DMSO, mixed in a 1:1 ratio with 10% (w/v) Pluronic F-127 and diluted in assay buffer, was added to the wells and the cell plates were incubated for 50 min at 37° C. and 5% CO2. Dye was removed by washing with the ELX 405 and the final volume was aspirated to […]. Compound master plates were formatted in a 10 point concentration-response curve (CRC) format (1:3 dilutions) in 100% DMSO with a starting concentration of 10 or 1 mM using a BRAVO liquid handler (Agilent). Test compound CRCs were then transferred to daughter plates (240 nL) using the Echo acoustic plate reformatter (Labcyte, Sunnyvale, Calif.) and then diluted into assay buffer (40 μL) to a 2× stock using a Thermo Fisher Combi (Thermo Fisher Scientific, Waltham, Mass.).
Calcium flux was measured using the Functional Drug Screening System (FDSS) 6000 or 7000 (Hamamatsu Corporation, Tokyo, Japan) as an increase in the fluorescent static ratio. Compounds were applied to cells (20 μL, 2×) using the automated system of the FDSS at 2 seconds into the protocol and the data were collected at 1 Hz. At 143 s, 10 μL of an EC20 concentration of the muscarinic receptor agonist acetylcholine was added (5×), followed by the addition of 12 μL of an EC80 concentration of acetylcholine at the 268 s time point (5×). Agonist activity was analyzed as a concentration-dependent increase in calcium mobilization upon compound addition. Positive allosteric modulator activity was analyzed as a concentration-dependent increase in the EC20 acetylcholine response. Antagonist activity was analyzed as a concentration-dependent decrease in the EC80 acetylcholine response; for the purposes of the tables herein, an […] (inhibitory concentration 50) was calculated as a concentration-dependent decrease of the response elicited by an EC80 concentration of acetylcholine. Concentration-response curves were generated using a four-parameter logistical equation in XLFit curve fitting software (IDBS, Bridgewater, N.J.) for Excel (Microsoft, Redmond, Wash.) or Prism (GraphPad Software, Inc., San Diego, Calif.) or the Dotmatics software platform (Dotmatics, Bishop's Stortford, UK).
Compounds were synthesized as described above. Activity (IC50 and Emin) was determined in the mAChR M4 cell-based functional assay as described above and the data are shown in Table 4.

| remaining activity at 30 µM [%] | IC50 [µM] | Compound |
| --- | --- | --- |
| 15.9 | > 10 | Cc1nn(C)cc1-c1ccc(NC2CC3(CCN(CC4CCOCC4)CC3)C2)nn1 [Compound 5, N-[6-(1,3-dimethylpyrazol-4-yl)pyridazin-3-yl]-7-(tetrahydropyran-4-ylmethyl)-7-azaspiro[3.5]nonan-2-amine] |
| 4.48 | 1.74 | COc1cccc(CN2CCC3(CC2)CC(CNc2ccc(-c4cc(F)ccc4Cl)nn2)C3)n1 [Compound 48, 6-(2-chloro-5-fluoro-phenyl)-N-[[7-[(6-methoxy-2-pyridyl)methyl]-7-azaspiro[3.5]nonan-2-yl]methyl]pyridazin-3-amine] |
| 6.85 | 1.12 | Cc1cccnc1CN1CCC2(CC1)CC(Nc1ccc(-c3c(C)cnn3C)nn1)C2 [Compound 12, N-[6-(2,4-dimethylpyrazol-3-yl)pyridazin-3-yl]-7-[(3-methyl-2-pyridyl)methyl]-7-azaspiro[3.5]nonan-2-amine] |
| 37.6 | > 10 | Cc1nn(C)cc1-c1ccc(NCC2CC3(CCN(CC4CCCOC4)CC3)C2)nn1 (stereo not shown) [Compound 51, 6-(1,3-dimethylpyrazol-4-yl)-N-[[7-(tetrahydropyran-3-ylmethyl)-7-azaspiro[3.5]nonan-2-yl]methyl]pyridazin-3-amine] |
| 6.14 | 1.49 | Fc1ccc(Cl)c(-c2ccc(OCC3CC4(CCN(CC5CCCCC5)CC4)C3)nn2)c1 [Compound 62, 2-[[6-(2-chloro-5-fluoro-phenyl)pyridazin-3-yl]oxymethyl]-7-(cyclohexylmethyl)-7-azaspiro[3.5]nonane] |
| 2.86 | 0.01 | Cc1cnn(C)c1-c1ccc(NC2CC3(CCN(CC4CC5C=CC4C5)CC3)C2)nn1 (stereo not shown) [Compound 8, 7-(5-bicyclo[2.2.1]hept-2-enylmethyl)-N-[6-(2,4-dimethylpyrazol-3-yl)pyridazin-3-yl]-7-azaspiro[3.5]nonan-2-amine] |
| 3.47 | 1.14 | Fc1ccc(Cl)c(-c2ccc(OC3CC4(CCN(CC5CCOCC5)CC4)C3)nn2)c1 [Compound 19, 2-[6-(2-chloro-5-fluoro-phenyl)pyridazin-3-yl]oxy-7-(tetrahydropyran-4-ylmethyl)-7-azaspiro[3.5]nonane] |
| 6.61 | 1.31 | Fc1ccc(Cl)c(-c2ccc(OCC3CC4(CCN(CC5CCOCC5)CC4)C3)nn2)c1 [Compound 64, 2-[[6-(2-chloro-5-fluoro-phenyl)pyridazin-3-yl]oxymethyl]-7-(tetrahydropyran-4-ylmethyl)-7-azaspiro[3.5]nonane] |
| 5.31 | 1.63 | Cc1nn(C)cc1-c1ccc(OC2CC3(CCN(Cc4ccccc4)CC3)C2)nn1 [Compound 30, 7-benzyl-2-[6-(1,3-dimethylpyrazol-4-yl)pyridazin-3-yl]oxy-7-azaspiro[3.5]nonane] |
| 17.8 | 6.37 | Cc1cnn(C)c1-c1ccc(OC2CC3(CCN(CC4CCOCC4)CC3)C2)nn1 [Compound 35, 2-[6-(2,4-dimethylpyrazol-3-yl)pyridazin-3-yl]oxy-7-(tetrahydropyran-4-ylmethyl)-7-azaspiro[3.5]nonane] |
| 4.6 | 2.02 | Fc1ccc(Cl)c(-c2ccc(NCC3CC4(CCN(Cc5ccc6c(c5)OCO6)CC4)C3)nn2)c1 [Compound 49, N-[[7-(1,3-benzodioxol-5-ylmethyl)-7-azaspiro[3.5]nonan-2-yl]methyl]-6-(2-chloro-5-fluoro-phenyl)pyridazin-3-amine] |
| 5.29 | 2.28 | Fc1ccc(Cl)c(-c2ccc(NCC3CC4(CCN(CC5CCCOC5)CC4)C3)nn2)c1 (stereo not shown) [Compound 43, 6-(2-chloro-5-fluoro-phenyl)-N-[[7-(tetrahydropyran-3-ylmethyl)-7-azaspiro[3.5]nonan-2-yl]methyl]pyridazin-3-amine] |
| 23.1 | > 10 | Cc1cnn(C)c1-c1ccc(NC2CC3(CCN(CC4CCOCC4)CC3)C2)nn1 [Compound 10, N-[6-(2,4-dimethylpyrazol-3-yl)pyridazin-3-yl]-7-(tetrahydropyran-4-ylmethyl)-7-azaspiro[3.5]nonan-2-amine] |
| 8.66 | 2.68 | Cc1nn(C)cc1-c1ccc(NCC2CC3(CCN(Cc4ccccc4)CC3)C2)nn1 [Compound 53, N-[(7-benzyl-7-azaspiro[3.5]nonan-2-yl)methyl]-6-(1,3-dimethylpyrazol-4-yl)pyridazin-3-amine] |
| 3.11 | 0.22 | Cc1cnn(C)c1-c1ccc(NC2CC3(CCN(CC(C)C(C)(C)C)CC3)C2)nn1 (stereo not shown) [Compound 9, N-[6-(2,4-dimethylpyrazol-3-yl)pyridazin-3-yl]-7-(2,3,3-trimethylbutyl)-7-azaspiro[3.5]nonan-2-amine] |
| 11.8 | 5.1 | Cc1nn(C)cc1-c1ccc(NCC2CC3(CCN(Cc4ccc(F)cc4)CC3)C2)nn1 [Compound 58, 6-(1,3-dimethylpyrazol-4-yl)-N-[[7-[(4-fluorophenyl)methyl]-7-azaspiro[3.5]nonan-2-yl]methyl]pyridazin-3-amine] |
| 2.42 | 0.47 | CC(C)(C)CCN1CCC2(CC1)CC(CNc1ccc(-c3cc(F)ccc3Cl)nn1)C2 [Compound 41, 6-(2-chloro-5-fluoro-phenyl)-N-[[7-(3,3-dimethylbutyl)-7-azaspiro[3.5]nonan-2-yl]methyl]pyridazin-3-amine] |
| 3.95 | 0.21 | Cc1cnn(C)c1-c1ccc(NC2CC3(CCN(CC4CCSCC4)CC3)C2)nn1 [Compound 11, N-[6-(2,4-dimethylpyrazol-3-yl)pyridazin-3-yl]-7-(tetrahydrothiopyran-4-ylmethyl)-7-azaspiro[3.5]nonan-2-amine] |
| 4.58 | 0.33 | Cc1nn(C)cc1-c1ccc(NC2CC3(CCN(CC4CCSCC4)CC3)C2)nn1 [Compound 6] |
| 3.29 | 0.089 | Cc1cnn(C)c1-c1ccc(NC2CC3(CCN(CCC(C)(C)C)CC3)C2)nn1 [Compound 2, 7-(3,3-Dimethylbutyl)-N-[6-(2,4-dimethylpyrazol-3-yl)pyridazin-3-yl]-7-azaspiro[3.5]nonan-2-amine] |
| 19.4 | 3.94 | Cc1cccnc1CN1CCC2(CC1)CC(CNc1ccc(-c3cn(C)nc3C)nn1)C2 [Compound 56, 6-(1,3-dimethylpyrazol-4-yl)-N-[[7-[(3-methyl-2-pyridyl)methyl]-7-azaspiro[3.5]nonan-2-yl]methyl]pyridazin-3-amine] |
| 8.05 | 2.67 | Cc1cccnc1CN1CCC2(CC1)CC(Oc1ccc(-c3cn(C)nc3C)nn1)C2 [Compound 31, 2-[6-(1,3-dimethylpyrazol-4-yl)pyridazin-3-yl]oxy-7-[(3-methyl-2-pyridyl)methyl]-7-azaspiro[3.5]nonane] |
| 3.12 | 0.01 | Cc1nn(C)cc1-c1ccc(NC2CC3(CCN(CC4CC5C=CC4C5)CC3)C2)nn1 (stereo not shown) [Compound 3, 7-(5-bicyclo[2.2.1]hept-2-enylmethyl)-N-[6-(1,3-dimethylpyrazol-4-yl)pyridazin-3-yl]-7-azaspiro[3.5]nonan-2-amine] |
